Results from US20190262330A1, “Method of Treating Hepatocellular Carcinoma Using N-(4-(6,7-dimethoxyquinolin-4-yloxy)phenyl)-N′-(4-fluorophenyl)cyclopropane-1,1-dicarboxamide, (2S)-hydroxybutanedioate” (Exelixis, Inc., priority 2017, published 2019).

Tests used:
[1] = Clinical pharmacokinetics; assay type: in vivo, human
[2] = tested on: Sprague-Dawley rats; assay: 2-year rat carcinogenicity study; assay type: in vivo
[3] = biological target: AXL (Homo sapiens, UniProt P30530); assay: In vitro biochemical and/or cellular kinase assays
[4] = Population pharmacokinetic analysis in specific populations; assay type: in vivo, human; settings: integrated population pharmacokinetic analysis
Excerpt: The pooled analysis included 391 patients with HCC of whom […] were categorized as having normal liver function, mild, and moderate hepatic impairment, respectively.

[5] = tested on: pregnant rats; assay: Embryo-fetal development study in pregnant rats; settings: daily oral, throughout organogenesis
[6] = biological target: T1, CYP2C8 (Homo sapiens, UniProt P10632); assay: In vitro metabolic pathways; assay type: in vitro ADME
[7] = biological target: MER (Homo sapiens, UniProt Q12866); assay: In vitro biochemical and/or cellular kinase assays
[8] = tested on: patients with advanced hepatocellular carcinoma; assay: Phase 3 CELESTIAL trial, safety; assay type: in vivo, human
Method: Treatment interruptions and dose reductions (to 40 mg and then to 20 mg) were utilized to manage adverse events. Patients received study treatment as long as they experienced clinical benefit as judged by the investigator or until they experienced unacceptable toxicity.
Secondary efficacy endpoints were progression-free survival, defined as the time from randomization to the earlier of radiographic progression or death due to any cause, and objective response rate. Tumor assessments were performed using computed tomography or magnetic resonance imaging at baseline and every 8 weeks after randomization until the later of 8 weeks after radiographic progression or treatment discontinuation. Tumor response and progression were assessed by the investigator using Response Evaluation Criteria In Solid Tumors (RECIST) version 1.1. Eisenhauer E A, Therasse P, Bogaerts J, et al. New response evaluation criteria in solid tumours: revised RECIST guideline (version 1.1). Eur J Cancer 2009; 45:228-47. Safety was continuously evaluated, and the severity of adverse events was assessed by the investigator using the National Cancer Institute Common Terminology Criteria for Adverse Events, version 4. Progression-free survival was tested by stratified log-rank test; significance level 0.04. Overall response rate was tested by 2-sided Fisher's exact test; significance level Of 0.01.
Efficacy was analyzed in all randomized patients by the intent-to-treat principle. Safety was analyzed in all patients who received at least one dose of study treatment. For time-to-event endpoints, hypothesis testing was done using the stratified log-rank test with the stratification factors used for randomization; median durations and associated 95% confidence intervals were estimated using the Kaplan-Meier method. Hazard ratios were estimated using Cox regression models. Hypothesis testing for objective response was done with the Cochran-Mantel-Haenszel method. All subgroup analyses of overall survival and progression-free survival were prespecified except for those based on extrahepatic spread of disease or macrovascular invasion as separate factors or sorafenib as the only prior therapy. For subgroup analyses, no adjustments were made for multiplicity, hazard ratios are unstratified, and confidence intervals are considered descriptive.
Patients on both arms who had disease progression could continue treatment at the discretion of the investigator [see Clinical Studies (14)].

[9] = tested on: CYP2B6; assay: In vitro CYP induction; assay type: in vitro ADME
[10] = biological target: CYP2E1 (Homo sapiens, UniProt P05181); assay: In vitro metabolic pathways; assay type: in vitro ADME
[11] = tested on: CYP2C19; assay: In vitro CYP induction; assay type: in vitro ADME
[12] = biological target: KIT (Homo sapiens, UniProt P10721); assay: In vitro biochemical and/or cellular kinase assays
[13] = tested on: CYP3A4; assay: In vitro CYP induction; assay type: in vitro ADME
[14] = biological target: CYP3A4 (Homo sapiens, UniProt P08684); assay: In vitro metabolic pathways; assay type: in vitro ADME
[15] = Excretion of 14C-cabozantinib radioactivity in healthy subjects; assay type: in vivo, human; settings: 72 hour collection
Method: Approximately 81% of the total administered radioactivity was recovered within a 48-day collection period following a single 140 mg dose of an investigational ^14C-cabozantinib formulation in healthy subjects. Approximately 54% was recovered in feces and 27% in urine.

[16] = biological target: RET (Homo sapiens, UniProt P07949); assay: In vitro biochemical and/or cellular kinase assays
[17] = tested on: advanced hepatocellular carcinoma; settings: from study entry; cited from earlier work
[18] = biological target: CYP2A6 (Homo sapiens, UniProt P11509); assay: In vitro metabolic pathways; assay type: in vitro ADME
[19] = biological target: TRKB (Homo sapiens, UniProt Q16620); assay: In vitro biochemical and/or cellular kinase assays
[20] = biological target: T1, CYP2C8; assay: In vitro CYP inhibition; assay type: in vitro ADME
[21] = biological target: CYP1A2 (Homo sapiens, UniProt P05177); assay: In vitro CYP inhibition; assay type: in vitro ADME
[22] = biological target: CYP2D6 (Homo sapiens, UniProt P10635); assay: In vitro CYP inhibition; assay type: in vitro ADME
[23] = tested on: juvenile rats; assay type: in vivo, rat
Method: […]. Mortalities occurred at doses equal and greater than 1 mg/kg/day (approximately 0.16 times the clinical dose of 60 mg/day based on body surface area).

T1 sequence (P10632 whole entry): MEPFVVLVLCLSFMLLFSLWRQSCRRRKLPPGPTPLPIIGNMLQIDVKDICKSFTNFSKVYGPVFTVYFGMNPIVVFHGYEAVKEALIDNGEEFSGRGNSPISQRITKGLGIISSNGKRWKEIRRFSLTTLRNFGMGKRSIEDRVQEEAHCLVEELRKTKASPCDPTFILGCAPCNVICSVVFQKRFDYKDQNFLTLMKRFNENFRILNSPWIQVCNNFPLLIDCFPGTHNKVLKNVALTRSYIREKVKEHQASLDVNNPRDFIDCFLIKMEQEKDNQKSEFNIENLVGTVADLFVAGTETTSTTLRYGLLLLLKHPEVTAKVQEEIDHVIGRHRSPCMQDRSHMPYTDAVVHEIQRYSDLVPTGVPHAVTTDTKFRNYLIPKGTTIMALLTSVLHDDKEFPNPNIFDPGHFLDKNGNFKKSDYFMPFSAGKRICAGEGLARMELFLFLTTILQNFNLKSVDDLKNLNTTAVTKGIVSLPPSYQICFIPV
Sequence of CYP2E1 (P05181 whole entry): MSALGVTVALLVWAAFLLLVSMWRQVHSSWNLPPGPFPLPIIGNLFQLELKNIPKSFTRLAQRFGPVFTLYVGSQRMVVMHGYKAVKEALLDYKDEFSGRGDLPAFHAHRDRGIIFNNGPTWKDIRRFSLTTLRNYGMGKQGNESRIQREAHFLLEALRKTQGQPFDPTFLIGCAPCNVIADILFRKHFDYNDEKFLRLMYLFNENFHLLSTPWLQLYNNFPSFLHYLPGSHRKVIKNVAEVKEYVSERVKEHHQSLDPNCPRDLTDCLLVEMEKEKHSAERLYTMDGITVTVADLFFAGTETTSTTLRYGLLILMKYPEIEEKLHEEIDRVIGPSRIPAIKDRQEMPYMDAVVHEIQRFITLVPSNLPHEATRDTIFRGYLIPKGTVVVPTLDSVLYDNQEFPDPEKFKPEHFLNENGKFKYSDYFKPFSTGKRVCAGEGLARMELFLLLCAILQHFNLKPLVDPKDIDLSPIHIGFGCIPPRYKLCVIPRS
Sequence of CYP1A2 (P05177 whole entry): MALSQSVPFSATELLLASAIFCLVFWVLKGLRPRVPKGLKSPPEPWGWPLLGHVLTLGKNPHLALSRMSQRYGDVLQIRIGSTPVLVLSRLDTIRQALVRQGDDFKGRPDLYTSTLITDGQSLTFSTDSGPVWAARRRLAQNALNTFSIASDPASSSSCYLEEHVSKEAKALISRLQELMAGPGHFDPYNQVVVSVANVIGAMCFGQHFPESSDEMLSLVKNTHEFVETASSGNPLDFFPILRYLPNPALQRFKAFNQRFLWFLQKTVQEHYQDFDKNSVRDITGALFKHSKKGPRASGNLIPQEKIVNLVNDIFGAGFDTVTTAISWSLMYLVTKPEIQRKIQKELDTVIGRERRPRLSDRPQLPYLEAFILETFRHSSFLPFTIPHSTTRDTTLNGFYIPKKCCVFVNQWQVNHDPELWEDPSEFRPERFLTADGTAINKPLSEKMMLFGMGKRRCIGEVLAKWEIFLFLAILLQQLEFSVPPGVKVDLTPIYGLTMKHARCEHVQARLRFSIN
Sequence of CYP2D6 (P10635 whole entry): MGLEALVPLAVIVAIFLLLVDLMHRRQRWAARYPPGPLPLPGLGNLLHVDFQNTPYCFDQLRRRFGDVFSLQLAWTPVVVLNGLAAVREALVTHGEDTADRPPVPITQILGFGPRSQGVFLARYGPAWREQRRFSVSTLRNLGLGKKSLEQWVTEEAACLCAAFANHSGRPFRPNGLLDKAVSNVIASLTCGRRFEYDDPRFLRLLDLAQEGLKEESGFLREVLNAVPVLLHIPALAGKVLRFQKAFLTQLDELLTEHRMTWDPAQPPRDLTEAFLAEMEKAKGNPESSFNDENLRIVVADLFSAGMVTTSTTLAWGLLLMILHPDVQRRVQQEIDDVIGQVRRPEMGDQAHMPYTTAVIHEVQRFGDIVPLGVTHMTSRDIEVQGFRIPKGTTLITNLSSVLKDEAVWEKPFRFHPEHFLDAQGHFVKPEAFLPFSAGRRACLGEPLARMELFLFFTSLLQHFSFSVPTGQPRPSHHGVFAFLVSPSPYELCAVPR
Sequence of KIT (P10721 26-976): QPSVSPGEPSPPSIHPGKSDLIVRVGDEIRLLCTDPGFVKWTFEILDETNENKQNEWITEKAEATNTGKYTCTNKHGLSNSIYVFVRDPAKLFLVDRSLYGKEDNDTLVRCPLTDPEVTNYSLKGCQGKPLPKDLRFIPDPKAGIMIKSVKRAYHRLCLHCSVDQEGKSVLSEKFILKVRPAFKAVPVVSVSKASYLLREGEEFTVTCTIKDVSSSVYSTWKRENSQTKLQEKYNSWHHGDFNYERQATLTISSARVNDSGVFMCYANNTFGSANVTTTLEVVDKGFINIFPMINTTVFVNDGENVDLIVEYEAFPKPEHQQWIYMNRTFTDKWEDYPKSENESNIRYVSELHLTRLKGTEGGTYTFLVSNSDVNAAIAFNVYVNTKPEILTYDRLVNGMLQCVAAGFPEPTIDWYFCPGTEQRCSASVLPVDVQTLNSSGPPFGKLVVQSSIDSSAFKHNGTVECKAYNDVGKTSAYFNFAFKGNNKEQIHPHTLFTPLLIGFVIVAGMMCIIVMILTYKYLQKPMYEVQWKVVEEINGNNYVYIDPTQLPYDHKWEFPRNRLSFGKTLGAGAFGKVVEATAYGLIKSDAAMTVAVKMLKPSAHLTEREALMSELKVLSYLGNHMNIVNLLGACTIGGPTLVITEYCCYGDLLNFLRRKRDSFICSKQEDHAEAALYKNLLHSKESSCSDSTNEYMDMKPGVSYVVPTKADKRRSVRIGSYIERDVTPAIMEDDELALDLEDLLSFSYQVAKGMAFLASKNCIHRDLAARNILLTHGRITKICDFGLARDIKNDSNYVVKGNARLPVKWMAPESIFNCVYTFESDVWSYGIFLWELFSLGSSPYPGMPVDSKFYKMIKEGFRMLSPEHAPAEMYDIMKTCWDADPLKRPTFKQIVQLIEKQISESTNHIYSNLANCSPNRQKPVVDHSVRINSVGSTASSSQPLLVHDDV
Sequence of TRKB (Q16620 32-822): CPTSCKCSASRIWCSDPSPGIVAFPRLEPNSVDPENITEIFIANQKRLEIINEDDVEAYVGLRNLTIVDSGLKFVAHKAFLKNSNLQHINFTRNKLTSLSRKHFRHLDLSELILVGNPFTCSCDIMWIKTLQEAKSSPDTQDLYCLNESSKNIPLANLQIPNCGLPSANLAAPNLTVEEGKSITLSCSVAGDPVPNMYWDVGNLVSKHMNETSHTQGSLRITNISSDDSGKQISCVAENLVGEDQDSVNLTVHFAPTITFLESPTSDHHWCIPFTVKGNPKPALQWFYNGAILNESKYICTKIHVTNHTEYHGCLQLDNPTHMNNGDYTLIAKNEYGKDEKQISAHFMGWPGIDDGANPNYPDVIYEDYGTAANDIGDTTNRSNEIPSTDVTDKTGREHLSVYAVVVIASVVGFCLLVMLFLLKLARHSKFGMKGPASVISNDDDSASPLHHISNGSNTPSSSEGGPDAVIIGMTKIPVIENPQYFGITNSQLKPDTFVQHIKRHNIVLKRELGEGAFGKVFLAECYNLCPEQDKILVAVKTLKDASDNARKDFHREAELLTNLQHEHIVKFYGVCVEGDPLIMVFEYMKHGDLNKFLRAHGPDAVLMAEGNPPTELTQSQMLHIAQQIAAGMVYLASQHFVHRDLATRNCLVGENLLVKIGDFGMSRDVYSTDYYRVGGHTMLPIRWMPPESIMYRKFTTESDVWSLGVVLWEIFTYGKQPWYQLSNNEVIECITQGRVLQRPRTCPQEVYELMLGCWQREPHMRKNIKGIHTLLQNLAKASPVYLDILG
Sequence of CYP2A6 (P11509 whole entry): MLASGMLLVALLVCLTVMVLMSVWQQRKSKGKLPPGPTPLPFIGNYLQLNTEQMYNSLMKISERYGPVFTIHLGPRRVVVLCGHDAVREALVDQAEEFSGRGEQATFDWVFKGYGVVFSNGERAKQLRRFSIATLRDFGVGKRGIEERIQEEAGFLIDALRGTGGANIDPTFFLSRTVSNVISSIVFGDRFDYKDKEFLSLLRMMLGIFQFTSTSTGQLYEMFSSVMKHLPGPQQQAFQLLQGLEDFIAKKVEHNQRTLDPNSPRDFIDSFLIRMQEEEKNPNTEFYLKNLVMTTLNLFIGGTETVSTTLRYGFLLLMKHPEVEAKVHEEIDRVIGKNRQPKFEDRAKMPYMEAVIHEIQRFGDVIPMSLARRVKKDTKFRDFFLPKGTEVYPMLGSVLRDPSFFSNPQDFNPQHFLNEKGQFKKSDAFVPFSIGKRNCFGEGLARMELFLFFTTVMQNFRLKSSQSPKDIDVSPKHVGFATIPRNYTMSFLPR
Sequence of CYP3A4 (Homo sapiens, UniProt P08684) (P08684 whole entry): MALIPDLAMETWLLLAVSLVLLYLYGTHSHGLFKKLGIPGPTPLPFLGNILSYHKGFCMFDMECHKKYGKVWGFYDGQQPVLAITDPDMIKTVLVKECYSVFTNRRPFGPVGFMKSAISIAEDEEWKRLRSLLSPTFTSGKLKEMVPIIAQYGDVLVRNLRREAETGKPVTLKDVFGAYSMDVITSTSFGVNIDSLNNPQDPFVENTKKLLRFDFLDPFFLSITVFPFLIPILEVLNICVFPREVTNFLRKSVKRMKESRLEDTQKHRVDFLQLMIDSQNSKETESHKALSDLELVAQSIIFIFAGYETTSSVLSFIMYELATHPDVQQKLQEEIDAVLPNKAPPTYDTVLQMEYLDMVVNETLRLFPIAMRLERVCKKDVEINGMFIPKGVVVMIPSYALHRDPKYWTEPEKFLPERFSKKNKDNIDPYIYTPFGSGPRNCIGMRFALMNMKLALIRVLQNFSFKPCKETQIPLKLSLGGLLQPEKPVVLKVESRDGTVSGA

COc1cc2nccc(Oc3ccc(NC(=O)C4(C(=O)Nc5ccc(F)cc5)CC4)cc3)c2cc1OC [cabozantinib]
Steady state achieved ([1]; 140 mg daily): ≤ 15 days
Vd/F ([1]; human, plasma, po, read-out: Oral volume of distribution (VZ/F)): ~319 L
Tmax ([1]; human, plasma, oral, read-out: Median time to peak plasma concentrations (Tmax)): 3 to 4 h
Exposure at that dose, times the human exposure by AUC at the recommended 60 mg dose ([2]; 1 mg/kg): approximately 5 times
Dose with statistically significant increase in incidence of pheochromocytoma in male rats ([2]; once daily oral, 2-year): 1 mg/kg
Tyrosine kinase activity of AXL [3]: inhibits
Differences in mean plasma exposure among normal liver function, mild and moderate hepatic impairment [4]: no clinically significant differences
Dose with delayed ossification and skeletal variations [5]: 0.01 mg/kg/day
Effect of inhibition of CYP2C8 on metabolite formation [6]: no effect
Tyrosine kinase activity of MER [7]: inhibits
Grade 5 adverse events considered related to study treatment ([8]; CELESTIAL): 6 patients
Grade 5 adverse events within 30 days of last dose ([8]; CELESTIAL): 12%
Adverse events of any grade regardless of causality ([8]; human, in vivo): 99%
Adverse events of grade 3 or 4 ([8]; human, in vivo): 68%
Any dose reduction ([8]; human, in vivo): 62%
Diarrhea, Grade 3/4 ([8]; human, in vivo): 10%
Discontinuation due to treatment-related adverse event ([8]; human, in vivo): 16%
Dose reduction due to diarrhea ([8]; human, in vivo): 10%
Dose reduction due to fatigue ([8]; human, in vivo): 7%
Dose reduction due to hypertension ([8]; human, in vivo): 7%
Dose reduction due to increased aspartate aminotransferase ([8]; human, in vivo): 6%
Dose reduction due to palmar-plantar erythrodysesthesia syndrome ([8]; human, in vivo): 22%
Fatigue, Grade 3/4 ([8]; human, in vivo): 10%
Hypertension, Grade 3/4 ([8]; human, in vivo): 16%
Increased aspartate aminotransferase, grade 3 or 4 adverse event ([8]; human, in vivo): 12%
Median time to first dose reduction ([8]; human, in vivo): 38 days
Palmar-plantar erythrodysesthesia, Grade 3/4 ([8]; human, in vivo): 17%
Serious adverse events ([8]; human, in vivo): 50%
Induction of CYP2B6 [9]: does not induce
Effect of inhibition of CYP2E1 on metabolite formation [10]: no effect
Induction of CYP2C19 [11]: does not induce
Tyrosine kinase activity of KIT [12]: inhibits
Induction of CYP3A4 [13]: does not induce
CYP3A4 substrate status [14]: substrate
Unchanged cabozantinib as share of total radioactivity in feces [15]: 43%
Tyrosine kinase activity of RET [16]: inhibits
Median overall survival [17]: 11.5 months
Median progression-free survival [17]: 5.2 months
Effect of inhibition of CYP2A6 on metabolite formation [18]: no effect
Tyrosine kinase activity of TRKB [19]: inhibits
Inhibition of CYP2C8 [20]: inhibitor
Inhibition of CYP1A2 [21]: does not inhibit
Inhibition of CYP2D6 [22]: does not inhibit
Mortality ([23]; 2 mg/kg): high levels of mortality
Effects on bones ([23]; rat, in vivo): reduced bone mineral content and density, physeal hypertrophy, and decreased cortical bone
Recovery after treatment ceased ([23]; rat, in vivo): effects on bone parameters were partially resolved but effects on the kidney and epididymis/testis persisted
Target organs ([23]; rat, in vivo): kidney (nephropathy, glomerulonephritis), reproductive organs, gastrointestinal tract
1 mg/kg/day as times the clinical dose of 60 mg/day based on body surface area ([23]; rat, in vivo, 1 mg/kg/day): approximately 0.16 times
2 mg/kg as times the clinical dose of 60 mg based on body surface area ([23]; rat, in vivo, 2 mg/kg): approximately 0.32 times
